Laboratory results as given in patent publication US3939268A, “2,4-Diamino substituted pyridol(3,2-d)pyrimidine as antithrombotic agents” (Boehringer Ingelheim GmbH, priority 1971, dated 1976).
Where a name gives a salt, the structure may show the parent alone.

Key:
[1] = test system: thrombocyte aggregation / platelet stickiness (human blood); test: retention test according to Morris (reduction in platelet stickiness, glass beads); assay type: cell-based; conditions: 5×10^-5 mol/liter, 10 minutes at 37°C, average of 4 - 6 determinations; for inhibition at 50 µM: Platelet, 10 min
Experimental: The inhibiting effect upon the platelet stickiness was determined by means of the so-called retention test according to Morris [see E. Deutsch et al, 1.Internationales Symposium uber Stoffwechsel and Membranpermeabilitat von Erythrocyten and Thrombocyten, Vienna, Austria (1969); Georg Thieme Verlag, Stuttgart, Germany]. […] To determine the inhibiting action of the test compound upon thrombocyte aggregation, 1 ml of human blood is pipetted into small test tubes, and the test compound is added to a final concentration of 5×10^^-5 mol/liter. The tubes are incubated for 10 minutes at 37°C. 1 gm of glass beads (glass beads for gas-chromatography) is added to half of the tubes. Finally the closed tubes are attached to a vertical wheel and rotated for 1 minute. By this means good contact is obtained between the glass beads and the blood. The tubes are then allowed to stand at room temperature for another hour, after which time a satisfactory sedimentation of erythrocytes has taken place. 0.01 ml of the supernatant plasma is removed, diluted to 1 : 8,000 with celloscope solution, and the platelet count is read in the celloscope. The percent reduction in the stickiness due to the presence of the substance (compared to tubes without glass beads) is measured and the average of 4 - 6 determinations is taken.

bleeding time = test: prolongation of the bleeding time (method of Duke); assay type: in vivo; conditions: non-anesthetized mice, 10 mgm/kg per os, after one hour, compared to untreated animals; for change in vivo at 10 mg/kg: Mus musculus, po, 1 h
Text: The prolonging effect upon the bleeding time was ascertained by the method of Duke, J. Amer. Med. Assoc. 15, 1185 (1910). 2. To determine the bleeding time, 10 mgm/kg of the test compound is given per os to non-anesthetized mice. After one hour, about 0.5 mm is cut off from the tail of each animal. The exuded blood is soaked up with filter paper every 30 seconds. The number of drops of blood so obtained is used as a measure for the bleeding time compared to untreated animals (5 animals/test).

acute toxicity (LD50) = conditions: mouse, in vivo, po, mice, observation time 14 days; for mortality at 336 h: p.o., printed with LD50 >250 mg/kg, read-out: animals died
Experimental: 3. The acute toxicity of some of the compounds for orientation (observationtime : 14 days) was determined on mice, or the LD50 was calculated from the percentage of animals which died after different doses within the observation time [see J. Pharmacol. exper. Therap. 96, 99(1949)].

[2] = test system: anesthetized cats and dogs; test: hypotensive tests (method of Eckenhoff); assay type: in vivo; conditions: in words, warm-blooded animals, such as mice
Experimental: The hypotensive tests were performed on anesthetized cats and dogs by the method of Eckenhoff, Amer. J. Physiol. 148, 582 (1947).

Structure (SMILES) | inhibition at 50 µM [1] | change in vivo at 10 mg/kg (bleeding time) | also measured
c1cnc2c(N3CCCCC3)nc(N3CCNCC3)nc2c1 [K, 2-piperazino-4-piperidino-pyrido[3,2-d]pyrimidine dihydrochloride] | 39% | 138% | –
OCCCN(CCCO)c1nc(N2CCOCC2)c2ncccc2n1 [J, 2-(dipropanol-amino)-4-morpholino-pyrido[3,2-d]pyrimidine dihydrochloride] | 50% | 45% | –
O=S1(=O)CCN(c2nc(N3CCNCC3)nc3cccnc23)CC1 [M, 2-piperazino-4-(1',1'-dioxide-thiomorpholino)-pyrido[3,2-d]pyrimidine dihydrochloride] | 88% | 98% | LD50 at 336 h (acute toxicity (LD50)): > 250 mg/kg; mortality at 336 h (acute toxicity (LD50)): 0%
Cl.Cl.[O-][S+]1CCN(c2nc(N3CCNCC3)nc3cccnc23)CC1 [C, 2-piperazino-4-(1'-oxido-thiomorpholino)-pyrido[3,2-d] pyrimidine dihydrochloride] | 99% | – | hypotensive activity [2]: particularly pronounced; LD50 at 336 h (acute toxicity (LD50)): 872 mg/kg
[O-][S+]1CCN(c2nc(N3CCNCC3)c3ncccc3n2)CC1 [O, 2-(1'-oxido-thiomorpholino)-4-piperazino-pyrido [3,2-d]pyrimidine] | 98% | 35% | hypotensive activity [2]: particularly pronounced; LD50 at 336 h (acute toxicity (LD50)): > 250 mg/kg; mortality at 336 h (acute toxicity (LD50)): 0%
[O-][S+]1CCN(c2nc(N(CCCO)CCCO)nc3cccnc23)CC1 [E, 2-(dipropanol-amino)-4-(1'-oxido-thiomorpholino)-pyrido[3,2-d]pyrimidine hydrochloride] | 88% | 40% | –
Cl.[O-][S+]1CCN(c2nc(N(CCO)CCCCCCO)nc3cccnc23)CC1 [F, 2-(n-ethanol-hexanolamino)-4-(1'-oxido-thiomorpholino)-pyrido[3,2-d]pyrimidine hydrochloride] | – | – | Reduction in Stickiness ([1]; 50 µM): 71%; Prolongation of Bleeding Time (bleeding time): 35%
CN1CCN(c2nc(N3CCOCC3)c3ncccc3n2)CC1 [I, 2-(n'-methyl-piperazino)-4-morpholino-pyrido[3,2-d] pyrimidine dihydrochloride] | 70% | 40% | –
OCCCN(CCCO)c1nc(N2CCCCC2)c2ncccc2n1 [L, 2-(dipropanol-amino)-4-piperidino-pyrido[3,2-d]pyrimidine hydrochloride] | 20% | 103% | –
Cc1ccc2nc(N3CCSCC3)nc(N3CCNCC3)c2n1 [Q, 2-thiomorpholino-4-piperazino-6-methyl-pyrido[3,2-d] pyrimidine dihydrochloride] | 34% | – | –
CN1CCN(c2nc(N3CCSCC3)c3ncccc3n2)CC1 [B, 2-(n'-methyl-piperazino)-4-thiomorpholino-pyrido[3,2-d] pyrimidine dihydrochloride] | 53% | 118% | –
O=C(O)/C=C\C(=O)O.c1cnc2c(N3CCSCC3)nc(N3CCNCC3)nc2c1 [A, 2-piperazino-4-thiomorpholinopyrido[3,2-d]pyrimidine maleate] | 99% | 171% | LD50 at 336 h (acute toxicity (LD50)): 413 mg/kg
CC1CN(c2nc(N3CCNCC3)nc3cccnc23)CC[S+]1[O-] (stereo not shown) [G, 2-piperazino-4-(1'-oxido-2'-methyl-thiomorpholino)-pyrido[3,2-d]pyrimidinedihydrochloride] | 96% | 55% | –
Cc1ccc2nc(N3CCNCC3)nc(N3CC[S+]([O-])CC3)c2n1 [P, 2-piperazino-4-(1'-oxido-thiomorpholino)-6-methylpyrido[3,2-d]pyrimidine d ihydrochloride] | 89% | 98% | –
c1cnc2c(N3CCNCC3)nc(N3CCSCC3)nc2c1 [Example 27, 2-Thiomorpholino-4-piperazino-pyrido[3,2-d]pyrimidine] | – | – | hypotensive activity [2]: particularly pronounced
c1cnc2c(N3CCOCC3)nc(N3CCNCC3)nc2c1 [H, 2-piperazino-4-morpholino-pyrido[3,2-d]pyrimidine dihydrochloride] | 96% | 55% | –
CN1CCN(c2nc(N3CC[S+]([O-])CC3)c3ncccc3n2)CC1 [D, 2-(n'-methyl-piperazino)-4-(1'-oxido-thiomorpholino)-pyrido[3,2-d]pyrimidine dihydrochloride] | 87% | 88% | –
Cl.Cl.c1cnc2c(N3CCCCC3)nc(N3CCSCC3)nc2c1 [N, 2-thiomorpholino-4-piperidino-pyrido[3,2-d]pyrimidine dihydrochloride] | 77% | 98% | LD50 at 336 h (acute toxicity (LD50)): > 250 mg/kg; mortality at 336 h (acute toxicity (LD50)): 0%
